Each structure is given as a SMILES string. “And” between values parts separate entries of the source, which are not always exact repeats. Equal entries are not always repeated. Inconclusive results and toxic doses are left out.

The subject of the assay is CD2F1 mice, L1210 leukemia ip, survival T/C. Put plainly: NCI In Vivo Anticancer Drug Screen. Data for tumor model L1210 Leukemia (intraperitoneal) in CD2F1 (CDF1) mice. The conditions noted are these: endpoint: mean survival time, higher = longer survival. A digest of the protocol: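 Antitumor effect is scored in animals hosting a serially transplanted tumor. Values compare compound-dosed animals against vehicle-only controls as a simple quotient.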

Where [1] appears, read: dose: 50.0 mg/kg/injection, schedule: Q01DX009 (ip), vehicle: saline.
Setting [2] is: dose: 100.0 mg/kg/injection, schedule: Q01DX009 (ip), vehicle: saline.
[3] abbreviates: dose: 100.0 mg/kg/injection, schedule: Q04DX003 (ip), vehicle: saline.
Setting [4] is: dose: 200.0 mg/kg/injection, schedule: Q04DX003 (ip), vehicle: saline.
Setting [5] is: dose: 25.0 mg/kg/injection, schedule: Q01DX009 (ip), vehicle: saline with Tween-80.
The mark [6] stands for this setting: dose: 50.0 mg/kg/injection, schedule: Q01DX009 (ip), vehicle: saline with Tween-80.
The mark [7] stands for this setting: dose: 100.0 mg/kg/injection, schedule: Q01DX009 (ip), vehicle: saline with Tween-80.
The mark [8] stands for this setting: dose: 200.0 mg/kg/injection, schedule: Q01DX009 (ip), vehicle: saline with Tween-80.
Where [9] appears, read: dose: 100.0 mg/kg/injection, schedule: Q04DX003 (ip), vehicle: saline with Tween-80.
The mark [10] stands for this setting: dose: 200.0 mg/kg/injection, schedule: Q04DX003 (ip), vehicle: saline with Tween-80.
The mark [11] stands for this setting: dose: 400.0 mg/kg/injection, schedule: Q04DX003 (ip), vehicle: saline with Tween-80.
Where [12] appears, read: dose: 12.5 mg/kg/injection, schedule: Q01DX005 (ip), vehicle: distilled water + Tween-80.
Setting [13] is: dose: 25.0 mg/kg/injection, schedule: Q01DX005 (ip), vehicle: distilled water + Tween-80.
Where [14] appears, read: dose: 50.0 mg/kg/injection, schedule: Q01DX005 (ip), vehicle: distilled water + Tween-80.
[15] abbreviates: dose: 100.0 mg/kg/injection, schedule: Q01DX005 (ip), vehicle: distilled water + Tween-80.
Where [16] appears, read: dose: 200.0 mg/kg/injection, schedule: Q01DX005 (ip), vehicle: distilled water + Tween-80.
[17] abbreviates: dose: 100.0 mg/kg/injection, schedule: Q01DX009 (ip), vehicle: Klucel (hydroxypropylcellulose) (HPC).
Setting [18] is: dose: 100.0 mg/kg/injection, schedule: Q01DX001 (ip), vehicle: saline with Tween-80.
Where [19] appears, read: dose: 200.0 mg/kg/injection, schedule: Q01DX001 (ip), vehicle: saline with Tween-80.
The mark [20] stands for this setting: dose: 400.0 mg/kg/injection, schedule: Q01DX001 (ip), vehicle: saline with Tween-80.

For the molecule `O=S(=O)(O)c1ccc(-c2ccc(S(=O)(=O)O)cc2)cc1` (tested in a mixture with another compound), the T/C was 95 % of control (dose: 6.3 mg/kg/injection, schedule: Q01DX009 (ip), vehicle: saline); 121 % of control and 108 % of control (dose: 6.3 mg/kg/injection, schedule: Q04DX003 (ip), vehicle: saline); 118 % of control (dose: 12.0 mg/kg/injection, schedule: Q01DX001 (ip), vehicle: saline); 117 % of control and 123 % of control (dose: 12.5 mg/kg/injection, schedule: Q01DX001 (ip), vehicle: saline); 150 % of control (dose: 12.5 mg/kg/injection, schedule: Q01DX009 (ip), vehicle: saline); 122 % of control (dose: 12.5 mg/kg/injection, schedule: Q04DX003 (ip), vehicle: saline). Besides, the T/C was 162 % of control and 172 % of control and 180 % of control (dose: 25.0 mg/kg/injection, schedule: Q01DX009 (ip), vehicle: saline); 150 % of control (dose: 50.0 mg/kg/injection, schedule: Q01DX001 (ip), vehicle: saline); 115 % of control and 205 % of control and 342 % of control under setting [1]; 160 % of control and 190 % of control and 205 % of control (dose: 50.0 mg/kg/injection, schedule: Q04DX003 (ip), vehicle: saline); 195 % of control (dose: 75.0 mg/kg/injection, schedule: Q04DX003 (ip), vehicle: saline); 100 % of control and 102 % of control under setting [2]. In addition, the T/C was 248 % of control and 275 % of control and 489 % of control under setting [3]; 217 % of control (dose: 150.0 mg/kg/injection, schedule: Q04DX003 (ip), vehicle: saline); 120 % of control under setting [4].
On to `O=C(C[n+]1ccccc1)N/N=C/c1c(O)ccc2ccccc12`, for which the T/C was 100 % of control under setting [5], 99 % of control under setting [6] and 99 % of control under setting [7].
As for `CC(C)NCCCC(=O)O`, the T/C (dose: 12.5 mg/kg/injection, schedule: Q01DX009 (ip), vehicle: water) was 96 % of control; the T/C (dose: 25.0 mg/kg/injection, schedule: Q01DX009 (ip), vehicle: water) was 98 % of control; the T/C (dose: 50.0 mg/kg/injection, schedule: Q01DX009 (ip), vehicle: water) is 90 % of control; the T/C (dose: 100.0 mg/kg/injection, schedule: Q01DX009 (ip), vehicle: water) was 98 % of control; the T/C (dose: 200.0 mg/kg/injection, schedule: Q01DX009 (ip), vehicle: water) was 95 % of control.
Consider `C1=CC2C3C=CC(CC3)C2CC1` (stereo not given), for which the T/C was 103 % of control under setting [7] and 98 % of control under setting [8].
As to `COC1(OC)CCC(OC)(OC)C(OC)(OC)C1(OC)OC`, the T/C is, setting by setting: under setting [9], 96 % of control; under setting [10], 94 % of control; under setting [11], 102 % of control.
For `Nc1cccc2cn[nH]c12`, the T/C runs as follows: (dose: 100.0 mg/kg/injection, schedule: Q04DX003 (ip), vehicle: other) 98 % of control; (dose: 200.0 mg/kg/injection, schedule: Q04DX003 (ip), vehicle: other) 96 % of control; (dose: 400.0 mg/kg/injection, schedule: Q04DX003 (ip), vehicle: other) 101 % of control.
On to `CC(C)(C)OC(=O)Cc1ncnc2c1ncn2C1OC(CO)C(O)C1O` (stereo not given), for which the T/C is 103 % of control under setting [12]; 102 % of control under setting [13]; 96 % of control under setting [14]; 97 % of control under setting [15]; 102 % of control under setting [16].
Take `COc1cc2c(cc1OC)C1CCN3C(=O)CCC3[N+]1(C)CC2` (stereo not given): the T/C is, setting by setting: under setting [1], 93 % of control; under setting [2], 98 % of control; under setting [3], 98 % of control; under setting [4], 96 % of control.
As for `CC/C(=N/NC(=O)c1ccccc1)c1ccccc1`, the T/C was 97 % of control under setting [17]; 96 % of control (dose: 100.0 mg/kg/injection, schedule: Q04DX003 (ip), vehicle: Klucel (hydroxypropylcellulose) (HPC)); 94 % of control (dose: 200.0 mg/kg/injection, schedule: Q04DX003 (ip), vehicle: Klucel (hydroxypropylcellulose) (HPC)); 86 % of control (dose: 400.0 mg/kg/injection, schedule: Q04DX003 (ip), vehicle: Klucel (hydroxypropylcellulose) (HPC)).
As to `O=C(Nc1ccc(F)cc1)c1cccc(C(=O)Nc2ccc(F)cc2)c1`, the T/C was 95 % of control under setting [5], 94 % of control under setting [6] and 94 % of control under setting [7].
As for `CC1(C)C/C(=C\c2ccc([N+](=O)[O-])cc2)C(=O)c2ccccc21`, the T/C (dose: 12.5 mg/kg/injection, schedule: Q01DX009 (ip), vehicle: Klucel (hydroxypropylcellulose) (HPC)) was 102 % of control; the T/C (dose: 25.0 mg/kg/injection, schedule: Q01DX009 (ip), vehicle: Klucel (hydroxypropylcellulose) (HPC)) was 98 % of control; the T/C (dose: 50.0 mg/kg/injection, schedule: Q01DX009 (ip), vehicle: Klucel (hydroxypropylcellulose) (HPC)) is 96 % of control; the T/C under setting [17] is 98 % of control; the T/C (dose: 200.0 mg/kg/injection, schedule: Q01DX009 (ip), vehicle: Klucel (hydroxypropylcellulose) (HPC)) is 93 % of control; the T/C (dose: 400.0 mg/kg/injection, schedule: Q01DX009 (ip), vehicle: Klucel (hydroxypropylcellulose) (HPC)) is 94 % of control.
As for `Cc1ccnc(NS(=O)(=O)c2ccc(N)cc2)n1`, the T/C was 100 % of control under setting [2]; 96 % of control (dose: 200.0 mg/kg/injection, schedule: Q01DX009 (ip), vehicle: saline); 97 % of control (dose: 400.0 mg/kg/injection, schedule: Q01DX009 (ip), vehicle: saline).
On to `O=C1C=CC(=O)N1Cc1ccco1`, for which the T/C reads like this: under setting [3], 102 % of control; under setting [4], 95 % of control; (dose: 400.0 mg/kg/injection, schedule: Q04DX003 (ip), vehicle: saline) 90 % of control.
Take `Nc1ncnc2c1c1c(=S)[nH]c(=S)[nH]c1n2C1OC(CO)C(O)C1O` (stereo not given): the T/C is 104 % of control under setting [12]; 105 % of control under setting [13]; 107 % of control under setting [14]; 104 % of control under setting [15]; 102 % of control under setting [16].
As to `F/C(=C\c1ccccc1)c1ccccc1`, the T/C was 110 % of control (dose: 50.0 mg/kg/injection, schedule: Q01DX001 (ip), vehicle: saline with Tween-80); 108 % of control under setting [18]; 101 % of control under setting [19].
Regarding `O=c1[nH]cnc2c1ncn2C1OCC(O)C(O)C1O` (stereo not given), the T/C (dose: 100.0 mg/kg/injection, schedule: Q01DX001 (ip), vehicle: saline) was 102 % of control; the T/C (dose: 200.0 mg/kg/injection, schedule: Q01DX001 (ip), vehicle: saline) is 97 % of control; the T/C (dose: 400.0 mg/kg/injection, schedule: Q01DX001 (ip), vehicle: saline) is 103 % of control.
For the molecule `COc1ccc(OC)c(NC(=S)NC(=O)c2cccc(Br)c2)c1`, the T/C is, setting by setting: under setting [18], 93 % of control; under setting [7], 95 % of control and 96 % of control; (dose: 100.0 mg/kg/injection, schedule: Q04DX002 (ip), vehicle: saline with Tween-80) 94 % of control and 100 % of control; under setting [9], 95 % of control; under setting [19], 88 % of control; under setting [8], 95 % of control and 100 % of control. Moreover, the T/C is 94 % of control and 100 % of control (dose: 200.0 mg/kg/injection, schedule: Q04DX002 (ip), vehicle: saline with Tween-80); 91 % of control under setting [10]; 89 % of control under setting [20]; 92 % of control and 100 % of control (dose: 400.0 mg/kg/injection, schedule: Q01DX009 (ip), vehicle: saline with Tween-80); 89 % of control and 100 % of control (dose: 400.0 mg/kg/injection, schedule: Q04DX002 (ip), vehicle: saline with Tween-80); 95 % of control under setting [11].
Take `Cc1cc(C)c(NS(=O)(=O)c2ccccc2)c(C)n1`: the T/C under setting [18] is 103 % of control, the T/C under setting [19] was 104 % of control and the T/C under setting [20] is 104 % of control.
